According to the NIST ThermoML archive (doi:10.1016/j.jct.2014.02.019):
± gives the expanded uncertainty stated by the source.

Key:
[1] = wn = mass fraction of the nth substance listed; conditions: 101 kPa, Liquid; for viscosity: Capillary tube (Ostwald / Ubbelohde) method; for mass density: Vibrating tube method
[2] = 101 kPa, Liquid; for viscosity: Capillary tube (Ostwald / Ubbelohde) method; for mass density: Vibrating tube method

Compound `CN(C)C=O` [dimethylformamide] + CC#N has a viscosity ([1]; 298.15 K, w1 = 1) of 0.7986 ± 0.024 mPa·s, a mass density ([1]; 298.15 K, w1 = 1) of 944.65 ± 1.9 kg/m3 and a viscosity ([1]; 303.15 K, w1 = 1) of 0.755 ± 0.023 mPa·s. The mass density ([1]; 303.15 K, w1 = 1) was 940.05 ± 1.9 kg/m3, the viscosity ([1]; 308.15 K, w1 = 1) was 0.7069 ± 0.022 mPa·s and the mass density ([1]; 308.15 K, w1 = 1) was 935.71 ± 1.9 kg/m3. For the same compound, the viscosity ([1]; 313.15 K, w1 = 1) was 0.6716 ± 0.021 mPa·s and the mass density ([1]; 313.15 K, w1 = 1) was 929.91 ± 1.9 kg/m3.
With `CC#N` [acetonitrile] the viscosity ([2]; 298.15 K) was 0.342 ± 0.011 mPa·s, the mass density ([2]; 298.15 K) was 776.47 ± 1.6 kg/m3 and the viscosity ([2]; 303.15 K) was 0.3269 ± 0.01 mPa·s. For the same compound, the mass density ([2]; 303.15 K) was 771.56 ± 1.6 kg/m3, the viscosity ([2]; 308.15 K) was 0.3092 ± 0.0097 mPa·s and the mass density ([2]; 308.15 K) was 765.26 ± 1.6 kg/m3. For the same compound, the viscosity ([2]; 313.15 K) was 0.2929 ± 0.0092 mPa·s and the mass density ([2]; 313.15 K) was 759.55 ± 1.5 kg/m3.
For `CC#N` [acetonitrile] + CN(C)C=O, the viscosity ([1]; 298.15 K, w2 = 0) was 0.342 ± 0.011 mPa·s, the viscosity ([1]; 298.15 K, w2 = 0.25) was 0.3959 ± 0.012 mPa·s and the viscosity ([1]; 298.15 K, w2 = 0.5) was 0.5214 ± 0.016 mPa·s. It also gave a viscosity ([1]; 298.15 K, w2 = 0.75) of 0.6465 ± 0.02 mPa·s, a mass density ([1]; 298.15 K, w2 = 0) of 776.47 ± 1.6 kg/m3 and a mass density ([1]; 298.15 K, w2 = 0.25) of 816.75 ± 1.6 kg/m3. For the same compound, the mass density ([1]; 298.15 K, w2 = 0.5) was 856.92 ± 1.7 kg/m3, the mass density ([1]; 298.15 K, w2 = 0.75) was 900.14 ± 1.8 kg/m3 and the viscosity ([1]; 303.15 K, w2 = 0) was 0.3269 ± 0.01 mPa·s. For the same compound, the viscosity ([1]; 303.15 K, w2 = 0.25) was 0.3598 ± 0.011 mPa·s, the viscosity ([1]; 303.15 K, w2 = 0.5) was 0.46 ± 0.014 mPa·s and the viscosity ([1]; 303.15 K, w2 = 0.75) was 0.6145 ± 0.019 mPa·s. It also gave a mass density ([1]; 303.15 K, w2 = 0) of 771.56 ± 1.6 kg/m3, a mass density ([1]; 303.15 K, w2 = 0.25) of 811.82 ± 1.6 kg/m3 and a mass density ([1]; 303.15 K, w2 = 0.5) of 852.67 ± 1.7 kg/m3. For the same compound, the mass density ([1]; 303.15 K, w2 = 0.75) was 895.46 ± 1.8 kg/m3, the viscosity ([1]; 308.15 K, w2 = 0) was 0.3092 ± 0.0097 mPa·s and the viscosity ([1]; 308.15 K, w2 = 0.25) was 0.3417 ± 0.011 mPa·s. The viscosity ([1]; 308.15 K, w2 = 0.5) was 0.434 ± 0.013 mPa·s, the viscosity ([1]; 308.15 K, w2 = 0.75) was 0.5816 ± 0.018 mPa·s and the mass density ([1]; 308.15 K, w2 = 0) was 765.26 ± 1.6 kg/m3. It also gave a mass density ([1]; 308.15 K, w2 = 0.25) of 806.58 ± 1.6 kg/m3, a mass density ([1]; 308.15 K, w2 = 0.5) of 847.38 ± 1.7 kg/m3 and a mass density ([1]; 308.15 K, w2 = 0.75) of 890.88 ± 1.8 kg/m3. For the same compound, the viscosity ([1]; 313.15 K, w2 = 0) was 0.2929 ± 0.0092 mPa·s, the viscosity ([1]; 313.15 K, w2 = 0.25) was 0.3262 ± 0.01 mPa·s and the viscosity ([1]; 313.15 K, w2 = 0.5) was 0.4038 ± 0.013 mPa·s. For the same compound, the viscosity ([1]; 313.15 K, w2 = 0.75) was 0.5524 ± 0.017 mPa·s, the mass density ([1]; 313.15 K, w2 = 0) was 759.55 ± 1.5 kg/m3 and the mass density ([1]; 313.15 K, w2 = 0.25) was 801.83 ± 1.6 kg/m3. For the same compound, the mass density ([1]; 313.15 K, w2 = 0.5) was 842.57 ± 1.7 kg/m3 and the mass density ([1]; 313.15 K, w2 = 0.75) was 886.23 ± 1.8 kg/m3.
Work on `CN(C)C=O` [dimethylformamide] yielded a viscosity ([2]; 298.15 K) of 0.7986 ± 0.024 mPa·s, a mass density ([2]; 298.15 K) of 944.65 ± 1.9 kg/m3 and a viscosity ([2]; 303.15 K) of 0.755 ± 0.023 mPa·s. It also gave a mass density ([2]; 303.15 K) of 940.05 ± 1.9 kg/m3, a viscosity ([2]; 308.15 K) of 0.7069 ± 0.022 mPa·s and a mass density ([2]; 308.15 K) of 935.71 ± 1.9 kg/m3. The viscosity ([2]; 313.15 K) was 0.6716 ± 0.021 mPa·s and the mass density ([2]; 313.15 K) was 929.91 ± 1.9 kg/m3.
